Holding throughout (test): NCI anticancer screen, dose series, 48 h
Experiment [1] relates to 786-0 renal.
The test system of experiment [2] is A498 renal.
Experiment [3] relates to UACC-257 melanoma.
Experiment [4] deals with CAKI-1 renal.
The test system of experiment [5] is OVCAR-4 ovarian.
For experiment [6], the system named is T-47D breast.
Experiment [7] relates to HCT-116 colon.
Experiment [8] deals with U251 CNS.
Experiment [9] has as its system NCI-H522 lung.
Experiment [10] has as its system HL-60(TB) leukemia.

We go through 16 molecules from PubChem BioAssay (NCI).

The structures appear in SMILES notation.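 Five concentrations, 48 hours, 96-well plates. TGI: concentration producing complete growth inhibition.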 Where a SMILES comes first, the peptide text is derived from it. The star is where a group is joined. Boc = CC(C)(C)OC(=O)*; OBn = c1ccc(CO*)cc1; Bn = c1ccc(C*)cc1

Take `COc1ccc(/C=C/C=C2C(=O)NC(=S)NC2=O)cc1`: the TGI was 5.47 µM in [1]; above 100 µM in experiment [2]; 22 µM in experiment [3]; 23.8 µM in experiment [4]; above 60.7 µM in [5]; above 100 µM in experiment [6]. In addition, the TGI in experiment [7] stood at 13.7 µM; in [8], 5.1 µM.
As for `CC(=O)NC1=NC(=O)/C(=C/c2ccc(Cl)cc2Cl)N1C`, the TGI in experiment [1] is above 100 µM; in experiment [9], above 100 µM; in experiment [3], above 100 µM; in [10] it was 7.37 µM; in [4] it was above 100 µM; in experiment [5], above 100 µM. Also, the TGI in [7] and in [8] was above 100 µM in each case.
Regarding `CSCC[C@@H](NC(=O)[C@H](CC(C)C)NC(=O)C(Cc1cnc[nH]1)NC(=O)CNC(=O)[C@@H](NC(=O)[C@H](C)NC(=O)[C@H](Cc1cn(C=O)c2ccccc12)NC(=O)[C@H](CCC(N)=O)NC(=O)[C@@H](N)CC(N)=O)C(C)C)C(N)=O` (some centres not stated), the TGI in experiment [2], in experiment [9], in [3], in experiment [10], in experiment [5] and in [7] was above 100 µM each time. This molecule gave a TGI in [8] above 100 µM.
Regarding `COC12OC3(C4OC41)C(C(=O)O[C@H]3CO[Si](C)(C)C(C)(C)C)C2S(=O)(=O)c1ccccc1` (some centres not stated), the TGI was above 7.71 µM in experiment [1]; 50.4 µM in [9]; above 12.6 µM in [3]; 7.66 µM in [10]; 3.33 µM in experiment [4]; above 100 µM in experiment [6]. Besides, the TGI is above 7.06 µM in experiment [7] and above 7.83 µM in [8].
Consider `COC(=O)c1ccc2c(c1)CC1(C2)Cc2ccc3c(c2C1)CCC3` (configuration not stated), for which the TGI in experiment [1] was above 100 µM; in experiment [9] it was 66.8 µM; in experiment [3], 53.8 µM; in experiment [10], 39.7 µM; in experiment [5] it was above 100 µM; in [6], 69.1 µM. In addition, the TGI in [7] and in [8] was above 100 µM throughout.
As for `O=C1NC(N2CCOCC2)=N/C1=C\c1ccccc1`, the TGI in experiment [1], in experiment [9], in experiment [3], in experiment [10], in experiment [4] and in experiment [5] was above 100 µM each time. The TGI in experiment [6], in experiment [7] and in [8] was above 100 µM throughout.
For `Clc1ccc2nc3c(c(-c4ccccc4)nn3-c3ccccc3)c(-c3ccccc3)c2c1`, the TGI in experiment [1], in experiment [9], in experiment [10], in experiment [5], in experiment [6] and in experiment [7] was above 100 µM each time. Also, the TGI in experiment [8] is above 100 µM.
Take `COc1ccc(/C=N/N=C(N)N)c(C(=O)O)c1OC`: the TGI in [2], in experiment [9], in experiment [3], in [10], in experiment [4] and in experiment [5] was above 100 µM throughout. For the same molecule, the TGI in experiment [7] and in experiment [8] was above 100 µM in each case.
With `CC12CCC3=C(CSC4=C3CSc3ccccc34)C1=CCCC2=O` (configuration not stated), the TGI in experiment [9] is above 100 µM; in experiment [10], above 100 µM; in experiment [4] it was above 100 µM; in experiment [5] it was 55.6 µM; in experiment [7], above 100 µM; in experiment [8], above 100 µM.
Consider `CC(C)OCC(O)COc1cc(=O)oc2ccccc12` (configuration not stated), for which the TGI in experiment [1], in experiment [9], in experiment [3], in experiment [10], in experiment [4] and in [5] was above 100 µM in each case. Further, the TGI in [6], in experiment [7] and in experiment [8] was above 100 µM in each case.
In the case of `O=c1[nH]/c(=C/c2cccs2)c(=O)[nH]/c1=C/c1ccc(OCc2ccccc2)cn1`, the TGI in experiment [1] was 25.6 µM; in experiment [2], 1.15 µM; in [9], 0.0998 µM; in [3], above 75 µM; in experiment [10] it was 0.244 µM; in experiment [4], 8.35 µM. Moreover, the TGI was 45.5 µM in experiment [5], above 100 µM in experiment [7] and 23.8 µM in experiment [8].
Regarding `CC(C)CC(NC(=O)C(CCC(=O)OCc1ccccc1)NC(=O)OC(C)(C)C)C(=O)NC(COCc1ccccc1)C(=O)NC(Cc1ccccc1)C(=O)O` (configuration not stated) (Boc-E(OBn)LS(Bn)F-OH; configuration not given here), the TGI in [1], in experiment [2], in [3], in experiment [10], in [7] and in [8] was above 100 µM each time.
For the molecule `CSc1nc(NC2CC2)c2c(n1)Sc1nc3ccccc3n1N=C2`, the TGI in experiment [1] was 21 µM; in experiment [2], 60.8 µM; in [9], above 100 µM; in [3], above 100 µM; in experiment [4] it was above 100 µM; in [5], 55.8 µM. For the same molecule, the TGI came out at 27.4 µM in [7] and 61.8 µM in experiment [8].
As for `O=C(O)c1cc(/C=C/c2ccc(O)c(O)c2)ccc1O`, the TGI in experiment [1], in experiment [9], in experiment [3], in [10], in experiment [4] and in experiment [5] was above 100 µM each time. For the same molecule, the TGI in experiment [6], in experiment [7] and in [8] was above 100 µM in each case.
On to `C=CCCCN1C(=O)C2C3c4ccccc4C(C=O)(c4ccccc43)C2C1=O` (configuration not stated), for which the TGI is 26.6 µM in [1]; 25.7 µM in experiment [9]; 28.9 µM in [3]; 34.5 µM in [10]; 50.9 µM in [4]; 29.1 µM in experiment [5]. Also, the TGI in experiment [6] was above 100 µM; in [7], 14.9 µM; in experiment [8], 24.9 µM.
`CC(=O)Nc1ccc(S(=O)(=O)/N=c2/sc(S(N)(=O)=O)nn2C)cc1`: the TGI in experiment [1], in experiment [2], in experiment [9], in experiment [10], in experiment [4] and in experiment [5] was above 100 µM in each case. Besides, the TGI in [7] and in experiment [8] was above 100 µM each time.
